Experimental data reported in patent US20110124588A1, “SYNERGISTIC ACTIVE INGREDIENT COMBINATIONS” (Bayer Cropscience AG, priority 2008, published 2011).
Where two headings read alike, the source gives them in different places.

Experiments:
Phaedon cochleariae = Phaedon cochleariae larvae test (sprayed cabbage leaves); type: in vivo, mustard beetle (Phaedon cochleariae) larvae; details: for pest or weed control at 0.8 g/ha / pest or weed control at 4 g/ha / pest or weed control at 20 g/ha / pest or weed control at 100 g/ha / pest or weed control at 0.16 g/ha: Phaedon cochleariae
Protocol: (§1) If the actual kill rate exceeds the calculated value, the kill of the combination is superadditive, i.e. a synergistic effect is present. In this case, the actually observed kill rate must exceed the value calculated using the above formula for the expected kill rate (E).
Solvents: 78 parts by weight of acetone • • 1.5 parts by weight of dimethylformamide Emulsifier: 0.5 part by weight of alkylaryl polyglycol ether
After the desired period of time, the kill in % is determined 100% means that all beetle larvae have been killed; 0% means that none of the beetle larvae have been killed. The kill rates determined are entered into Colby's formula.

Tetranychus urticae = Tetranychus urticae test (OP-resistant/spray treatment); type: in vivo, greenhouse red spider mite (Tetranychus urticae)
From the text: (§2) The expected activity of a given combination of two active compounds can be calculated as follows, according to S. R. Colby, Weeds 15 (1967), 20-22:
(§3) X is the kill rate, expressed as a percentage of the untreated control, when employing active compound A at an application rate of m g/ha or in a concentration of m ppm, Y is the kill rate, expressed as a percentage of the untreated control, when employing active compound B at an application rate of n g/ha or in a concentration of n ppm and E is the kill rate, expressed as a percentage of the untreated control, when employing active compounds A and B at application rates of m and n g/ha or in a concentration of m and n ppm, then
as §1
(§4) solvents: 78 parts by weight of acetone • • 1.5 parts by weight of dimethylformamide emulsifier: 0.5 part by weight of alkylaryl polyglycol ether
(§5) To produce a suitable preparation of active compound, 1 part by weight of active compound is mixed with the stated amounts of solvents and emulsifier, and the concentrate is diluted with emulsifier-containing water to the desired concentration.
Discs of bean leaves (Phaseolus vulgaris) which are infested by all stages of the greenhouse red spider mite (Tetranychus urticae) are sprayed with an active compound preparation of the desired concentration.
After the desired period of time, the activity in % is determined 100% means that all spider mites have been killed; 0% means that none of the spider mites have been killed.

Myzus persicae = Myzus persicae test (spray treatment of infested cabbage leaves); type: in vivo, green peach aphid (Myzus persicae); details: for pest or weed control at 0.8 g/ha / pest or weed control at 0.16 g/ha / pest or weed control at 0.032 g/ha / pest or weed control at 4 g/ha: Myzus persicae
Protocol: as §1, §4
After the desired period of time, the kill in % is determined 100% means that all aphids have been killed; 0% means that none of the aphids have been killed. The kill rates determined are entered into Colby's formula.

Spodoptera frugiperda = Spodoptera frugiperda larvae test (sprayed cabbage leaves); type: in vivo, army worm (Spodoptera frugiperda) larvae; details: for pest or weed control at 0.16 g/ha / pest or weed control at 0.8 g/ha / pest or weed control at 20 g/ha / pest or weed control at 100 g/ha / pest or weed control at 4 g/ha: Spodoptera frugiperda
From the text: as §2, §3, §1, §4, §5
Cabbage leaves (Brassica oleracea) are treated by spraying with the active compound preparation of the desired concentration and are populated with larvae of the army worm (Spodoptera frugiperda) while the leaves are still moist.
After the desired period of time, the kill in % is determined 100% means that all caterpillars have been killed; 0% means that none of the caterpillars have been killed. The kill rates determined are entered into Colby's formula.

[1] = 144 h, read-out: Kill in % after 6 d
[2] = Tetranychus urticae, 48 h, read-out: Kill in % after 2 d
[3] = 24 h, read-out: Kill in % after 1 d
[4] = 48 h, single active compound, 2 d, read-out: Kill in % after 2 d
[5] = 144 h, single active compound, 0.8 g/ha, 6 d, read-out: Kill in % after 6 d
[6] = 144 h, single active compound, 6 d, read-out: Kill in % after 6 d
[7] = 48 h, single active compound, 0.16 g/ha, 2 d, read-out: Kill in % after 2 d
[8] = 48 h, single active compound, 0.8 g/ha, 2 d, read-out: Kill in % after 2 d
[9] = 48 h, single active compound, 100 g/ha, 2 d, read-out: Kill in % after 2 d
[10] = 144 h, single active compound, 100 g/ha, 6 d, read-out: Kill in % after 6 d
[11] = 144 h, single active compound, 0.16 g/ha, 6 d, read-out: Kill in % after 6 d
[12] = Tetranychus urticae, 144 h, read-out: Kill in % after 6 d
[13] = 48 h, read-out: Kill in % after 2 d
[14] = single active compound, 0.8 g/ha, 6 d
[15] = single active compound, 4 g/ha, after 6 d
[16] = single active compound, 100 g/ha, 6 d

## CN/C(=N\[N+](=O)[O-])NCC1CCOC1 (stereo not shown) [dinotefuran]
Phaedon cochleariae; [1]
  pest or weed control at 0.8 g/ha: 0%
Tetranychus urticae; [2]
  pest or weed control at 20 g/ha: 0%
Myzus persicae; [3]
  pest or weed control at 0.8 g/ha: 0%

## CC(c1ccc(Cl)nc1)S(C)(=O)=NC#N (stereo not shown) [compound (I-5)]
Phaedon cochleariae; [4]
  pest or weed control at 4 g/ha: 0%
  pest or weed control at 20 g/ha: 0%
Phaedon cochleariae; [5]
  pest or weed control at 0.8 g/ha: 0%
Phaedon cochleariae; [6]
  pest or weed control at 4 g/ha: 0%
  pest or weed control at 20 g/ha: 0%
Spodoptera frugiperda; [7]
  pest or weed control at 0.16 g/ha: 0%
Spodoptera frugiperda; [8]
  pest or weed control at 0.8 g/ha: 0%
Spodoptera frugiperda; 48 h, single active compound, 20 g/ha, 2 d, read-out: Kill in % after 2 d
  pest or weed control at 20 g/ha: 0%
Spodoptera frugiperda; [9]
  pest or weed control at 100 g/ha: 0%
Spodoptera frugiperda; [5]
  pest or weed control at 0.8 g/ha: 0%
Spodoptera frugiperda; 144 h, single active compound, 4 g/ha, 6 d, read-out: Kill in % after 6 d
  pest or weed control at 4 g/ha: 0%
Spodoptera frugiperda; 144 h, single active compound, 20 g/ha, 6 d, read-out: Kill in % after 6 d
  pest or weed control at 20 g/ha: 0%
Spodoptera frugiperda; [10]
  pest or weed control at 100 g/ha: 0%
Tetranychus urticae; Tetranychus urticae, 48 h, single active compound, 0.8 g/ha, after 2 d, read-out: Kill in % after 2 d
  pest or weed control at 0.8 g/ha: 0%
Tetranychus urticae; Tetranychus urticae, 48 h, single active compound, 4 g/ha, after 2 d, read-out: Kill in % after 2 d
  pest or weed control at 4 g/ha: 0%
Tetranychus urticae; Tetranychus urticae, 144 h, single active compound, 4 g/ha, after 6 d, read-out: Kill in % after 6 d
  pest or weed control at 4 g/ha: 0%
Tetranychus urticae; Tetranychus urticae, 144 h, single active compound, 20 g/ha, after 6 d, read-out: Kill in % after 6 d
  pest or weed control at 20 g/ha: 0%
Tetranychus urticae; Tetranychus urticae, 144 h, single active compound, 100 g/ha, after 6 d, read-out: Kill in % after 6 d
  pest or weed control at 100 g/ha: 0%
Myzus persicae; 24 h, single active compound, 0.16 g/ha, 1 d, read-out: Kill in % after 1 d
  pest or weed control at 0.16 g/ha: 0%
Myzus persicae; 24 h, single active compound, 0.8 g/ha, 1 d, read-out: Kill in % after 1 d
  pest or weed control at 0.8 g/ha: 0%
Myzus persicae; [11]
  pest or weed control at 0.16 g/ha: 0%
Myzus persicae; [5]
  pest or weed control at 0.8 g/ha: 20%

## Cc1nn(C)c(/C(OC(=O)C(C)(C)C)=C(\C#N)c2ccc(C(C)(C)C)cc2)c1C [cyenopyrafen, (1E)-2-cyano-2-[4-(1,1-dimethylethyl)phenyl]-1-(1,3,4-trimethyl-1H-pyrazol-5-yl)ethenyl 2,2-dimethylpropanoate]
Phaedon cochleariae; [10]
  pest or weed control at 100 g/ha: 0%
Tetranychus urticae; [2]
  pest or weed control at 0.8 g/ha: 70%

## Cc1c(COC(=O)C2C(/C=C(\Cl)C(F)(F)F)C2(C)C)cccc1-c1ccccc1 (stereo not shown) [bifenthrin]
Phaedon cochleariae; [5]
  pest or weed control at 0.8 g/ha: 50%
Spodoptera frugiperda; [1]
  pest or weed control at 0.8 g/ha: 0%
Tetranychus urticae; [12]
  pest or weed control at 4 g/ha: 40%
Myzus persicae; [1]
  pest or weed control at 0.032 g/ha: 0%

## CC(c1ccc(C(F)(F)F)nc1)S(C)(=O)=NC#N (stereo not shown) [compound (I-8)]
Phaedon cochleariae; [7]
  pest or weed control at 0.16 g/ha: 0%
Phaedon cochleariae; [8]
  pest or weed control at 0.8 g/ha: 0%
Phaedon cochleariae; [4]
  pest or weed control at 4 g/ha: 0%
  pest or weed control at 20 g/ha: 0%
Phaedon cochleariae; [9]
  pest or weed control at 100 g/ha: 67%
Phaedon cochleariae; [11]
  pest or weed control at 0.16 g/ha: 0%
Phaedon cochleariae; [5]
  pest or weed control at 0.8 g/ha: 0%
Phaedon cochleariae; [6]
  pest or weed control at 4 g/ha: 0%
  pest or weed control at 20 g/ha: 17%
Phaedon cochleariae; [10]
  pest or weed control at 100 g/ha: 67%
Spodoptera frugiperda; [13]
  pest or weed control at 0.16 g/ha: 0%
  pest or weed control at 0.8 g/ha: 0%
  pest or weed control at 20 g/ha: 0%
Spodoptera frugiperda; [1]
  pest or weed control at 0.16 g/ha: 0%
  pest or weed control at 0.8 g/ha: 0%
  pest or weed control at 4 g/ha: 0%
  pest or weed control at 20 g/ha: 0%
Tetranychus urticae; [2]
  pest or weed control at 0.8 g/ha: 0%
  pest or weed control at 4 g/ha: 0%
Tetranychus urticae; [12]
  pest or weed control at 0.16 g/ha: 0%
  pest or weed control at 0.8 g/ha: 0%
  pest or weed control at 4 g/ha: 0%
  pest or weed control at 20 g/ha: 0%
  pest or weed control at 100 g/ha: 0%
Myzus persicae; [3]
  pest or weed control at 0.16 g/ha: 0%
Myzus persicae; [1]
  pest or weed control at 0.16 g/ha: 60%

## CC1=NNC(=O)N(/N=C/c2cccnc2)C1 [pymetrozine]
Tetranychus urticae; [12]
  pest or weed control at 100 g/ha: 0%
Myzus persicae; [1]
  pest or weed control at 0.16 g/ha: 0%
  pest or weed control at 0.8 g/ha: 60%

## spinosad
Spodoptera frugiperda; [14]
  Kill in % after 6 d: 50%
Tetranychus urticae; [15]
  Kill in % after 6 d: 20%

## O=C(NC(=O)c1c(F)cccc1F)Nc1ccc(OC(F)(F)C(F)OC(F)(F)F)c(Cl)c1 (stereo not shown) [novaluron]
Spodoptera frugiperda; [13]
  pest or weed control at 0.8 g/ha: 33%
Tetranychus urticae; [2]
  pest or weed control at 20 g/ha: 0%
Myzus persicae; [1]
  pest or weed control at 4 g/ha: 0%

## Cc1nn(C)c(Oc2ccccc2)c1C=NOCc1ccc(C(=O)OC(C)(C)C)cc1 [fenpyroximate]
Phaedon cochleariae; [4]
  pest or weed control at 20 g/ha: 0%
Spodoptera frugiperda; [1]
  pest or weed control at 100 g/ha: 50%
Tetranychus urticae; [12]
  pest or weed control at 4 g/ha: 60%
Myzus persicae; [1]
  pest or weed control at 0.8 g/ha: 0%

## CCOCn1c(-c2ccc(Cl)cc2)c(C#N)c(Br)c1C(F)(F)F [chlorfenapyr]
Phaedon cochleariae; [5]
  pest or weed control at 0.8 g/ha: 0%
Phaedon cochleariae; [6]
  pest or weed control at 4 g/ha: 83%
Spodoptera frugiperda; [13]
  pest or weed control at 4 g/ha: 67%
Tetranychus urticae; [2]
  pest or weed control at 4 g/ha: 50%

## COCCOC(=O)C(C#N)(C(=O)c1ccccc1C(F)(F)F)c1ccc(C(C)(C)C)cc1 (stereo not drawn) [cyflumetofen, 2-methoxyethyl alpha-cyano-alpha-[4-(1,1-dimethylethyl)phenyl]-beta-oxo-2-(trifluoromethyl)benzenepropanoate]
Phaedon cochleariae; [10]
  pest or weed control at 100 g/ha: 0%
Tetranychus urticae; [2]
  pest or weed control at 0.8 g/ha: 50%

## spinetoram
Phaedon cochleariae; [14]
  Kill in % after 6 d: 50%
Spodoptera frugiperda; single active compound, 0.16 g/ha, 2 d
  Kill in % after 2 d: 50%
Tetranychus urticae; single active compound, 4 g/ha, after 2 d
  Kill in % after 2 d: 20%
Myzus persicae; [14]
  Kill in % after 6 d: 0%

## Cc1ccc(/N=C/N(C)/C=N/c2ccc(C)cc2C)c(C)c1 [amitraz]
Tetranychus urticae; [12]
  pest or weed control at 20 g/ha: 80%
Myzus persicae; [3]
  pest or weed control at 0.8 g/ha: 0%
Myzus persicae; [1]
  pest or weed control at 4 g/ha: 0%

## CCc1nn(C)c(C(=O)NCc2ccc(C(C)(C)C)cc2)c1Cl [tebufenpyrad]
Phaedon cochleariae; [6]
  pest or weed control at 20 g/ha: 0%
Tetranychus urticae; [12]
  pest or weed control at 4 g/ha: 40%
Myzus persicae; [1]
  pest or weed control at 0.16 g/ha: 0%
  pest or weed control at 0.8 g/ha: 0%

## CC1(C)[C@H](C(=O)O[C@H](C#N)c2cccc(Oc3ccccc3)c2)[C@@H]1C=C(Br)Br [deltamethrin]
Phaedon cochleariae; [8]
  pest or weed control at 0.8 g/ha: 67%
Phaedon cochleariae; [11]
  pest or weed control at 0.16 g/ha: 50%
Spodoptera frugiperda; [1]
  pest or weed control at 0.16 g/ha: 17%
Tetranychus urticae; [12]
  pest or weed control at 4 g/ha: 0%
Myzus persicae; [3]
  pest or weed control at 0.032 g/ha: 0%

## CSC(=O)O/C(=C(/C#N)c1ccc(Cl)cc1)c1ccccc1C(F)(F)F [IKA 2002]
Phaedon cochleariae; [16]
  Kill in % after 6 d: 0%
Spodoptera frugiperda; [16]
  Kill in % after 6 d: 0%
Tetranychus urticae; [15]
  Kill in % after 6 d: 70%

## emamectin benzoate
Spodoptera frugiperda; single active compound, 0.8 g/ha, 2 d
  Kill in % after 2 d: 83%
Tetranychus urticae; single active compound, 0.032 g/ha, after 6 d
  Kill in % after 6 d: 0%
Myzus persicae; single active compound, 0.0064 g/ha, 6 d
  Kill in % after 6 d: 0%

## abamectin
Phaedon cochleariae; single active compound, 0.16 g/ha, 6 d
  Kill in % after 6 d: 0%
Tetranychus urticae; single active compound, 0.032 g/ha, after 2 d
  Kill in % after 2 d: 0%
Myzus persicae; single active compound, 0.032 g/ha, 6 d
  Kill in % after 6 d: 0%
